The record followed here is ChEMBL document CHEMBL1821584, “Docking and 3D-QSAR (quantitative structure activity relationship) studies of flavones, the potent inhibitors of p-glycoprotein targeting the nucleotide binding domain” (Eur J Med Chem, 2011).

As a reminder, the pKd is the negative decadic logarithm of the Kd, by convention in mol/L.

SMILES strings stand for the structures. pKd: −log10 of the molar value.

Chain of ATP-dependent translocase ABCB1 (P08183 whole entry, the tested form may be a part): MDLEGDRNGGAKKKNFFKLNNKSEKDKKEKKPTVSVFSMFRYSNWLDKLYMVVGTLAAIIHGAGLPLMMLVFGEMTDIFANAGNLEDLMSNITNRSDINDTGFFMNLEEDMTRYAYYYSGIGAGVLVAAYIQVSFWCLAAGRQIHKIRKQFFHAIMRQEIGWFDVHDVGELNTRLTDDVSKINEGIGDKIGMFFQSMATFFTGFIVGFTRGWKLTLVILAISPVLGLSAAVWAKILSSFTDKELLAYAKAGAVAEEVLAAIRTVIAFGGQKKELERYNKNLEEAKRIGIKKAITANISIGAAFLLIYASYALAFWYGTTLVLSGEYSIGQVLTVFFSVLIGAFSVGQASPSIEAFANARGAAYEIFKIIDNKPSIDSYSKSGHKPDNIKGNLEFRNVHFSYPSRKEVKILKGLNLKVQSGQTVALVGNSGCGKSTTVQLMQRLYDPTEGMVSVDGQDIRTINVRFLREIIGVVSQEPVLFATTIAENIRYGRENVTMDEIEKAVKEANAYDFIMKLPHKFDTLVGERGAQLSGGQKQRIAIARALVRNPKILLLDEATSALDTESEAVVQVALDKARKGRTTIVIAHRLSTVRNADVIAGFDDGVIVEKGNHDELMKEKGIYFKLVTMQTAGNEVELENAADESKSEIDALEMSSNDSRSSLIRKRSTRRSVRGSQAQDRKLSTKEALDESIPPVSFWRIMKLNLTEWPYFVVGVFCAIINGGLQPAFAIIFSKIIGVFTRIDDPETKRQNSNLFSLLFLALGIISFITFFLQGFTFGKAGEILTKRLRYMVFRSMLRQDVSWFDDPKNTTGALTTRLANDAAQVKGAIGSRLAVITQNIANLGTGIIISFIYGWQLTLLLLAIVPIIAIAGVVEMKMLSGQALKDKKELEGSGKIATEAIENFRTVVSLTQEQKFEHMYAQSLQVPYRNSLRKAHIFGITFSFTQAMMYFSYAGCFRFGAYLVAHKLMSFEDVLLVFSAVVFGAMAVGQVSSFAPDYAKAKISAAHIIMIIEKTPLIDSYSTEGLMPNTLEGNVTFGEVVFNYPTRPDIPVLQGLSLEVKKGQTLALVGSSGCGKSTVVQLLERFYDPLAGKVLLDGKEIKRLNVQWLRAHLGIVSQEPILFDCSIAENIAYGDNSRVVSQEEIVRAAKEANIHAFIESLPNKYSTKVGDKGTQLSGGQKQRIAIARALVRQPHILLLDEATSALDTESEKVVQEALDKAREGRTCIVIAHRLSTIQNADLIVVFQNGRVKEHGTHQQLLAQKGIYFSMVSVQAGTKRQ

This assay has as its target ATP-dependent translocase ABCB1 (Homo sapiens, UniProt P08183). The experiment in a line: Binding affinity to ABCB1 nucleotide binding domain 2.
For the molecule `CC(C)=Cc1c(O)cc2oc(-c3ccccc3)cc(=O)c2c1O`, the pKd is 6.52.

`CC(C)Oc1cc2oc(-c3ccccc3)cc(=O)c2c(O)c1C(C)C` gave a pKd of 6.55.

Regarding `CC(C)=Cc1c(O)cc2oc(-c3ccccc3)c(O)c(=O)c2c1O`, the pKd was 6.68.

In the case of `O=c1cc(-c2ccc(O)cc2)oc2cc(O)cc(O)c12` [APIGENIN], the pKd is 5.00.

`O=c1cc(-c2ccccc2)oc2ccccc12` [FLAVONE] had a pKd of 4.47.

As for `CC(C)=Cc1c(O)cc(O)c2c(=O)cc(-c3ccccc3)oc12`, the pKd was 6.55.

`C=CC(C)(C)c1c(O)cc(O)c2c(=O)c(O)c(-c3ccc(OC)cc3)oc12` had a pKd of 6.70.

With `C=CC(C)(C)c1c(O)cc(O)c2c(=O)cc(-c3ccccc3)oc12`, the pKd was 6.70.

As to `O=c1c(O)c(-c2ccc(F)cc2)oc2cc(O)cc(O)c12`, the pKd was 5.17.

Take `CC(C)=Cc1c(O)cc(O)c2c(=O)c(O)c(-c3ccccc3)oc12`: the pKd was 6.66.

With `COc1cc(O)c2c(=O)cc(-c3ccccc3)oc2c1` [TECHTOCHRYSIN], the pKd was 5.20.

The molecule `O=c1c(O)c(-c2ccc(O)cc2)oc2cc(O)cc(O)c12` [KAEMPFEROL] showed a pKd of 5.17.

`Cc1c(O)cc2oc(-c3ccccc3)cc(=O)c2c1O` had a pKd of 5.51.

`CC(C)=CCC/C(C)=C/c1c(O)cc(O)c2c(=O)cc(-c3ccccc3)oc12` gave a pKd of 7.60.

Molecule `CC(C)c1c(O)cc2oc(-c3ccccc3)cc(=O)c2c1O` gave a pKd of 6.68.

Molecule `O=c1cc(-c2ccccc2)oc2c(Cc3ccccc3)c(O)cc(O)c12` had a pKd of 6.00.

Consider `O=c1c(O)c(-c2ccccc2)oc2ccccc12` [FLAVONOL], for which the pKd was 5.00.

In the case of `O=c1cc(-c2ccc(I)cc2)oc2cc(O)cc(O)c12`, the pKd was 5.66.

The molecule `C=CC(C)(C)c1c(O)cc(O)c2c(=O)c(O)c(-c3ccccc3)oc12` gave a pKd of 6.35.

As for `CC(C)=Cc1c(O)c(C=C(C)C)c2oc(-c3ccccc3)cc(=O)c2c1O`, the pKd was 7.82.

`COc1ccc(-c2oc3cc(O)cc(O)c3c(=O)c2O)cc1` [KAEMPFERIDE]: the pKd was 5.35.

`COc1c(-c2ccccc2)oc2cc(O)cc(O)c2c1=O` showed a negative logarithm of the Kd (pKd) of 5.05.

Regarding `O=c1cc(-c2ccccc2)oc2cc(O)ccc12` [7-HYDROXYFLAVONE], the pKd is 4.46.

In the case of `O=c1cc(-c2ccccc2)oc2cc(O)cc(O)c12` [CHRYSIN], the pKd was 5.05.

As to `O=c1c(O)c(-c2ccccc2)oc2cc(O)cc(O)c12` [GALANGIN], the pKd was 5.23.

In turn, `CC(C)=CCC/C(C)=C/c1c(O)cc2oc(-c3ccccc3)cc(=O)c2c1O` had a pKd of 7.35.

`O=c1c(O)c(C(c2ccccc2)c2ccccc2)oc2cc(O)cc(O)c12` gave a pKd of 5.70.

In the case of `C=CC(C)(C)c1c(OC)cc(O)c2c(=O)c(OC)c(-c3ccccc3)oc12`, the pKd was 6.82.

In the case of `CC(C)Oc1c(C(C)C)c(O)c2c(=O)cc(-c3ccccc3)oc2c1C(C)C`, the pKd was 7.48.

For `O=c1c(-c2ccc(O)cc2)coc2cc(O)cc(O)c12` [GENISTEIN], the pKd is 4.58.

Regarding `O=c1cc(-c2ccc(F)c(F)c2)oc2cc(O)cc(O)c12`, the pKd was 5.20.

As to `O=c1cc(-c2ccccc2)oc2cc(O)c(Cc3ccccc3)c(O)c12`, the pKd is 6.47.

Turning to `COc1cc2oc(-c3ccccc3)cc(=O)c2c(O)c1C`, the pKd was 5.89.

In turn, `O=c1c(O)c(-c2ccc(I)cc2)oc2cc(O)cc(O)c12` gave a pKd of 5.96.

On to `O=c1cc(-c2ccccc2)oc2c(Cc3ccccc3)c(O)c(Cc3ccccc3)c(O)c12`, for which the pKd was 7.44.

`CCCCCCCCc1ccc(-c2oc3cc(O)cc(O)c3c(=O)c2O)cc1` gave a pKd of 7.24.

`C=CC(C)(C)c1c(O)cc(O)c2c(=O)cc(-c3ccc(O)cc3)oc12` gave a pKd of 6.15.

`CC(C)Oc1cc(O)c2c(=O)cc(-c3ccccc3)oc2c1` had a pKd of 6.00.

Molecule `O=c1cc(-c2ccccc2)oc2cc(OCc3ccccc3)cc(O)c12` gave a pKd of 7.17.

`O=c1c(O)c(-c2ccc(Cl)cc2Cl)oc2cc(O)cc(O)c12` gave a pKd of 5.40.
